Measured values from US9315806B2, “Massively parallel combinatorial genetics” (Massachusetts Institute of Technology, priority 2012, dated 2016).

Experiments:
[1] = tested on: Klebsiella pneumoniae NDM-1 clinical isolate; conditions: original Klebsiella pneumoniae NDM-1 isolate; cited from earlier work
E. coli NDM-1 strain = experiment: microbe, parasite or virus in culture; type: cell-based; conditions: for NDM-1 MICs, Tested: for piperacillin-tazobactam the piperacillin concentration; for MIC: Escherichia coli, NDM1STRAIN, read-out: NDM-1 MICs, Tested
[2] = tested on: yeast strains (Aβ or αSyn expression array, W303 background); experiment: Cell growth and inducible amyloid toxicity of yeast model strains; type: cell-based; conditions: yeast strains with integrated rtTA
Excerpt: (§1) The repetitive Aβ or αSyn expression array was integrated in yeast genome (the W303 background) and controlled by galactose induction. FIG. 28 depicts a yeast strain generated by integrating multiple tandem copies of αSyn with a galactose (Gal)-inducible promoter. In order to minimize the size of plasmid backbone for library construction, the reverse tetracycline transactivator (rtTA), part of the Tet-ON expression system (Gossen, M. et al., Science […]:1766-9 (1995)), was integrated into both yeast strains. The Tet-ON induction was tested by using different fluorescent proteins (such as eGFP and mCherry), and consistently detected robust gene activation (about 50-fold increase) with doxycycline (Dox) treatment. […] Similarly, the rtTA was successfully integrated in wild-type strain (the BY4741 background) to study longevity.

[3] = tested on: Tet-ON expression system (rtTA); experiment: Tet-ON induction tested with fluorescent proteins (eGFP, mCherry); type: cell-based; conditions: yeast strains with integrated rtTA
Excerpt: as §1

[4] = tested on: aTc-inducible pLtetO promoters; experiment: aTc induction of GFP/mCherry pairwise combinations; type: cell-based, E. coli; conditions: DH5a colonies, increasing concentrations of aTc
Excerpt: Next, to test gene expression, a barcoded vector library of GFP and mCherry was constructed under the control of aTc-inducible pLtetO promoters with a T1+T7 fusion terminator downstream of each ORF. Each vector contained the high-copy ColE1 origin, tetR under control of a constitutive promoter, and cat conferring chloramphenicol resistance.
An insert library was generated via PCR, creating a pairwise combinatorial set as in FIG. 5 that was then transformed into DH5a cells. Twenty-four colonies were isolated and grown in increasing concentrations of aTc along with positive and negative controls (FIG. 7).

Gentamicin
NDM-1 MICs, Previously Reported [1]: >10 µg/mL | NDM-1 MICs, Tested (E. coli NDM-1 strain; E. coli NDM-1): >256 µg/mL

CO/N=C(\C(=O)N[C@@H]1C(=O)N2C(C(=O)O)=C(CSc3nc(=O)c(=O)[nH]n3C)CS[C@H]12)c1csc(N)n1 [Ceftriaxone]
NDM-1 MICs, Previously Reported [1]: >32 µg/mL | MIC (E. coli NDM-1 strain): > 128 µg/mL

CC1(C)S[C@@H]2[C@H](NC(=O)[C@H](N)c3ccc(O)cc3)C(=O)N2[C@H]1C(=O)O [Amoxicillin]
MIC (E. coli NDM-1 strain): > 512 µg/mL

Piperacillin-Tazobactam
NDM-1 MICs, Previously Reported [1]: >128 µg/mL | NDM-1 MICs, Tested (E. coli NDM-1 strain; E. coli NDM-1): > 256 µg/mL | NDM-1 MICs, Tested, tazobactam concentration (E. coli NDM-1 strain; E. coli NDM-1, tazobactam part of piperacillin-tazobactam): 32 µg/mL

Colistin
NDM-1 MICs, Previously Reported [1]: 0.25 µg/mL | NDM-1 MICs, Tested (E. coli NDM-1 strain; E. coli NDM-1): <0.125 µg/mL

C[C@H]1c2cccc(O)c2C(=O)C2=C(O)[C@]3(O)C(=O)C(C(N)=O)=C(O)[C@@H](N(C)C)[C@@H]3[C@@H](O)[C@@H]21 [doxycycline]
Effect on cell growth or inducible amyloid toxicity [2]: neither the integrated rtTA nor the Dox treatment affects cell growth or the inducible amyloid toxicity | Gene activation (Tet-ON induction) [3]: about 50 fold

C[C@@H](O)[C@H]1C(=O)N2C(C(=O)O)=C(SCCN=CN)C[C@H]12 [Imipenem]
MIC (E. coli NDM-1 strain): > 32 µg/mL

Cc1c2c(c(O)c3c(O)cccc13)C(=O)[C@]1(O)C(O)=C(C(N)=O)C(=O)[C@@H](N(C)C)[C@@H]1C2 [aTc]
on/off ratios of induction [4]: 150-300 x
